Source: PubChem BioAssay AID214 (DTP/NCI, 2004)
Where “and” joins values, the source holds several entries; their conditions need not be identical. Equal values may be shown once. Records with an inconclusive call do not appear.

Tested on: B6C3F1 mice, colon carcinoma 38 s.c., T/C
Assay: NCI In Vivo Anticancer Drug Screen. Data for tumor model Colon Carcinoma 38 (subcutaneous) in B6C3F1 mice
Settings: endpoint: median tumor weight (est.), higher = larger tumour
Experimental: The antitumor activity of compounds was measured in mice bearing transplantable tumors. Survival or tumor size were measured and the results are expressed as the measurement made in the treated group (T) divided by the measurement made in the vehicle treated control group (C). The tumor model used in this assay is Colon Carcinoma 38 (subcutaneous) in B6C3F1 mice

[1] = dose: 50.0 mg/kg/injection, schedule: Q07DX002 (ip), vehicle: Klucel (hydroxypropylcellulose) (HPC)
[2] = dose: 100.0 mg/kg/injection, schedule: Q07DX002 (ip), vehicle: Klucel (hydroxypropylcellulose) (HPC)
[3] = dose: 200.0 mg/kg/injection, schedule: Q07DX002 (ip), vehicle: Klucel (hydroxypropylcellulose) (HPC)
[4] = dose: 25.0 mg/kg/injection, schedule: Q07DX002 (ip), vehicle: saline with Tween-80
[5] = dose: 200.0 mg/kg/injection, schedule: Q07DX002 (ip), vehicle: saline with Tween-80

Q: For `CCCCCNc1ncnc2c(C)[nH]nc12`, which T/C [1] is on record?
A: The T/C was 123 % of control.

Q: And the T/C [2]?
A: The T/C was 102 % of control.

Q: And the T/C [3]?
A: The T/C was 77 % of control.

Q: `O=c1[nH]cccc1O` was tested. Which T/C (dose: 62.5 mg/kg/injection, schedule: Q07DX002 (ip), vehicle: saline with Tween-80) did it give?
A: Its T/C is 91 % of control.

Q: What about the T/C (dose: 125.0 mg/kg/injection, schedule: Q07DX002 (ip), vehicle: saline with Tween-80) of the same compound?
A: The T/C was 90 % of control and 97 % of control.

Q: And the T/C (dose: 250.0 mg/kg/injection, schedule: Q07DX002 (ip), vehicle: saline with Tween-80)?
A: Its T/C is 90 % of control and 95 % of control.

Q: And the T/C (dose: 500.0 mg/kg/injection, schedule: Q07DX002 (ip), vehicle: saline with Tween-80)?
A: Its T/C is 95 % of control and 70 % of control.

Q: And the T/C (dose: 1000.0 mg/kg/injection, schedule: Q07DX002 (ip), vehicle: saline with Tween-80)?
A: Its T/C is 74 % of control.

Q: Which T/C [4] does the source give for `O=[N+]([O-])c1ccc(N(CCO)CCO)c2c1no[n+]2[O-]` here?
A: The T/C was 85 % of control.

Q: And the T/C (dose: 50.0 mg/kg/injection, schedule: Q07DX002 (ip), vehicle: saline with Tween-80)?
A: Its T/C is 63 % of control.

Q: What does the source list for `O=c1[nH]cnc2nc(/N=N/SCCO)[nH]c12`?
A: T/C [1]: 115 % of control; T/C [2]: 114 % of control; T/C [3]: 101 % of control

Q: How did the T/C (dose: 4.0 mg/kg/injection, schedule: Q07DX002 (ip), vehicle: water) turn out when `C[n+]1c(-c2cccc(OCCOCCOc3cccc(-c4c5cc(N)ccc5c5ccc(N)cc5[n+]4C)c3)c2)c2cc(N)ccc2c2ccc(N)cc21` was run?
A: The T/C was 71 % of control.

Q: And the T/C (dose: 8.0 mg/kg/injection, schedule: Q07DX002 (ip), vehicle: water)?
A: Its T/C is 54 % of control.

Q: What about the T/C (dose: 16.0 mg/kg/injection, schedule: Q07DX002 (ip), vehicle: water) of the same compound?
A: Its T/C is 85 % of control and 66 % of control.

Q: What about the T/C (dose: 64.0 mg/kg/injection, schedule: Q07DX002 (ip), vehicle: water) of the same compound?
A: The T/C was 33 % of control and 52 % of control.

Q: How did the T/C [5] turn out when `Oc1cc2ccccc2c(-c2c(O)c(O)cc3ccccc23)c1O` was run?
A: Its T/C is 70 % of control.

Q: What about the T/C (dose: 400.0 mg/kg/injection, schedule: Q07DX002 (ip), vehicle: saline with Tween-80) of the same compound?
A: Its T/C is 62 % of control.

Q: And the T/C (dose: 800.0 mg/kg/injection, schedule: Q07DX002 (ip), vehicle: saline with Tween-80)?
A: The T/C was 104 % of control.

Q: What does the source list for `COc1ccccc1CC(=O)O`?
A: T/C (dose: 75.0 mg/kg/injection, schedule: Q07DX002 (ip), vehicle: saline with Tween-80): 78 % of control; T/C (dose: 150.0 mg/kg/injection, schedule: Q07DX002 (ip), vehicle: saline with Tween-80): 107 % of control; T/C (dose: 300.0 mg/kg/injection, schedule: Q07DX002 (ip), vehicle: saline with Tween-80): 98 % of control

Q: What does the source list for `ClCCCN1CCN(CCCl)CC1`?
A: T/C (dose: 5.0 mg/kg/injection, schedule: Q07DX002 (ip), vehicle: saline): 101 % of control; T/C (dose: 10.0 mg/kg/injection, schedule: Q07DX002 (ip), vehicle: saline): 83 % of control; T/C (dose: 20.0 mg/kg/injection, schedule: Q07DX002 (ip), vehicle: saline): 44 % of control

Q: `OCC(O)C(O)C(O)C(O)CO` (stereo unspecified) was tested. Which T/C (dose: 75.0 mg/kg/injection, schedule: Q07DX002 (ip), vehicle: saline) did it give?
A: The T/C was 90 % of control.

Q: What about the T/C (dose: 150.0 mg/kg/injection, schedule: Q07DX002 (ip), vehicle: saline) of the same compound?
A: Its T/C is 66 % of control.

Q: And the T/C (dose: 300.0 mg/kg/injection, schedule: Q07DX002 (ip), vehicle: saline)?
A: Its T/C is 111 % of control.

Q: What about the T/C (dose: 600.0 mg/kg/injection, schedule: Q07DX002 (ip), vehicle: saline) of the same compound?
A: Its T/C is 92 % of control.

Q: What about the T/C (dose: 1200.0 mg/kg/injection, schedule: Q07DX002 (ip), vehicle: saline) of the same compound?
A: The T/C was 86 % of control.

Q: Which results are given for `O=c1[nH]cnc2[nH]ncc12`?
A: T/C (dose: 25.0 mg/kg/injection, schedule: Q07DX002 (ip), vehicle: suspension in saline): 83 % of control; T/C (dose: 50.0 mg/kg/injection, schedule: Q07DX002 (ip), vehicle: suspension in saline): 69 % of control; T/C (dose: 100.0 mg/kg/injection, schedule: Q07DX002 (ip), vehicle: suspension in saline): 88 % of control

Q: With `O=P1(NCCCl)OCCCN1CCCl` (stereo unspecified) as the compound, how does the T/C (dose: 30.0 mg/kg/injection, schedule: Q01DX006 (ip), vehicle: saline) read?
A: Its T/C is 61 % of control.

Q: With `O=C(CCCCCCC(=O)ON1C(=O)CCC1=O)ON1C(=O)CCC1=O` as the compound, how does the T/C (dose: 12.5 mg/kg/injection, schedule: Q07DX002 (ip), vehicle: saline with Tween-80) read?
A: Its T/C is 74 % of control.

Q: What about the T/C [4] of the same compound?
A: The T/C was 69 % of control.

Q: What about the T/C [5] of the same compound?
A: Its T/C is 108 % of control.

Q: For `COC12C(COC(=O)NCCO)C3=C(C(=O)C(C)=C(N)C3=O)N1CC1NC12` (stereo unspecified), which T/C (dose: 12.5 mg/kg/injection, schedule: Q07DX002 (ip), vehicle: Klucel (hydroxypropylcellulose) (HPC)) is on record?
A: Its T/C is 65 % of control.

Q: What about the T/C (dose: 25.0 mg/kg/injection, schedule: Q07DX002 (ip), vehicle: Klucel (hydroxypropylcellulose) (HPC)) of the same compound?
A: Its T/C is 50 % of control.

Q: And the T/C [1]?
A: Its T/C is 12 % of control.
